Experimental data published in patent US10519134B2, “Pyrazole compounds and methods of making and using same” (Lundbeck La Jolla Research Center, Inc., priority 2015, dated 2019).

Columns and labels:
FAAH = molecular target: T1, FAAH (Mus musculus, UniProt O08914); assay: In vitro competitive activity-based protein profiling (mouse), FAAH gel band; format: biochemical; conditions: for IC50: mouse; for inhibition at 1 µM: read-out: FAAH % inh. 1 μM
T1 construct: Proteomes (mouse brain membrane fraction or cell lysates); from tissue; host or cells: mouse brain membrane fraction (or cell lysates)
T1 sequence (O08914 1-579): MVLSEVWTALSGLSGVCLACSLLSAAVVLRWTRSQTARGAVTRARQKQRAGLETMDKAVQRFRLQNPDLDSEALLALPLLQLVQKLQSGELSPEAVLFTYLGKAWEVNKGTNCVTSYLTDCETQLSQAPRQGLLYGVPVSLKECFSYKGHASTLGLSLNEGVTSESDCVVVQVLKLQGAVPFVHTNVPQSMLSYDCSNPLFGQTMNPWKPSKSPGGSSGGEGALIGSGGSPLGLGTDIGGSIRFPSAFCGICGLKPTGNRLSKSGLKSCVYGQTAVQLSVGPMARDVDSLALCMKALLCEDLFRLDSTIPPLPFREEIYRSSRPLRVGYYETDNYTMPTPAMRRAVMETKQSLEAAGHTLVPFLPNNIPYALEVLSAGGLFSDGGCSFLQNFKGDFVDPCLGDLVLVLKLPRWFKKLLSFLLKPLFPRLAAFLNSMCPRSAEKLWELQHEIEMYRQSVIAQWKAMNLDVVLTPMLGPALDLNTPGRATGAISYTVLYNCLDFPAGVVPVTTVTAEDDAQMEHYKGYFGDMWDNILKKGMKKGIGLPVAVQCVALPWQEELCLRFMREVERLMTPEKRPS
Description: (§1) In Vitro Competitive Activity-Based Protein Profiling (Mouse).
(§2) Proteomes (mouse brain membrane fraction or cell lysates) (50 μL, 1.0 mg/mL total protein concentration) were preincubated with varying concentrations of inhibitors at 37° C. After 30 min, FP-Rh or HT-01 (1.0 μL, 50 μM in DMSO) was added and the mixture was incubated for another 30 min at 37° C. Reactions were quenched with SDS loading buffer (15 μL—4×) and run on SDS-PAGE. Following gel imaging, serine hydrolase activity was determined by measuring fluorescent intensity of gel bands corresponding to MAGL, ABHD6, and FAAH, using ImageJ 1.43u software.

MAGL = molecular target: T2, MAGL (Mus musculus, UniProt O35678); assay: In vitro competitive activity-based protein profiling (mouse), MAGL gel band; format: biochemical; conditions: for IC50: mouse; for inhibition at 1 µM: read-out: MAGL % inh. 1 μM
T2 construct: Proteomes (mouse brain membrane fraction or cell lysates); from tissue; host or cells: mouse brain membrane fraction (or cell lysates)
T2 sequence (O35678 1-303): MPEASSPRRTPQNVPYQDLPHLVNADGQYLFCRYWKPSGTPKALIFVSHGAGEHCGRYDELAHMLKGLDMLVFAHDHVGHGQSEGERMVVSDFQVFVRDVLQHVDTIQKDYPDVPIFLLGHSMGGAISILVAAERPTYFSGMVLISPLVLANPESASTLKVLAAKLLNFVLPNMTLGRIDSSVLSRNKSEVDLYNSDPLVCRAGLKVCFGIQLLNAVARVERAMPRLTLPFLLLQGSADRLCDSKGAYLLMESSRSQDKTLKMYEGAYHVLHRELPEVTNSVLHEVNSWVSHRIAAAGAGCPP
Description: as §1, §2

CC(=O)Nc1ccn(C(=O)N2CCC3(CCCN3Cc3ccc4c(ccn4C)c3)CC2)n1 [Example 185, N-(1-(1-((1-methyl-1H-indol-5-yl)methyl)-1,8-diazaspiro[4.5]decane-8-carbonyl)-1H-pyrazol-3-yl)acetamide]
IC50 (FAAH): 1000 to 10000 nM
inhibition at 1 µM (FAAH): 0 to 25%
IC50 (MAGL): 1000 to 10000 nM
inhibition at 1 µM (MAGL): ≥ 75%

CS(=O)(=O)Nc1ccn(C(=O)N2CCC3(CCCN3Cc3ccc(Cl)cc3N3CCCCC3)CC2)n1 [Example 132, N-(1-(1-(4-chloro-2-(piperidin-1-yl)benzyl)-1,8-diazaspiro[4.5]decane-8-carbonyl)-1H-pyrazol-3-yl)methanesulfonamide]
inhibition at 1 µM (FAAH): 0 to 25%
inhibition at 1 µM (MAGL): 50 to 75%

CS(=O)(=O)Nc1ccn(C(=O)N2CCC3(CCCN3Cc3cc(N4CCOCC4)cc(C(F)(F)F)c3)CC2)n1 [Example 162, N-(1-(1-(3-morpholino-5-(trifluoromethyl)benzyl)-1,8-diazaspiro[4.5]decane-8-carbonyl)-1H-pyrazol-3-yl) methanesulfonamide]
inhibition at 1 µM (FAAH): 0 to 25%
inhibition at 1 µM (MAGL): ≥ 75%

CC(=O)Nc1ccn(C(=O)N2CCN(Cc3ccc(C(F)(F)F)cc3N3CCC(NC(C)=O)CC3)CC2)n1 [Example 275, N-(1-(2-((4-(3-acetamido-1H-pyrazole-1-carbonyl)piperazin-1-yl)methyl)-5-(trifluoromethyl)phenyl)piperidin-4-yl)acetamide]
inhibition at 1 µM (FAAH): 0 to 25%
inhibition at 1 µM (MAGL): ≥ 75%

CC(=O)Nc1ccn(C(=O)N2CCC3(CCCN3Cc3ccc(C(F)(F)F)cc3N3CCCCC3)CC2)n1 [Example 19, N-(1-(1-(2-(piperidin-1-yl)-4-(trifluoromethyl)benzyl)-1,8-diazaspiro[4.5]decane-8-carbonyl)-1H-pyrazol-3-yl)acetamide]
IC50 (FAAH): 1000 to 10000 nM
inhibition at 1 µM (FAAH): 0 to 25%
IC50 (MAGL): ≤ 100 nM
inhibition at 1 µM (MAGL): ≥ 75%

CS(=O)(=O)Nc1ccn(C(=O)N2CCN(Cc3ccc(N4CCOCC4)cc3C(F)(F)F)CC2)n1 [Example 157, N-(1-(4-(4-morpholino-2-(trifluoromethyl)benzyl)piperazine-1-carbonyl)-1H-pyrazol-3-yl) methanesulfonamide]
inhibition at 1 µM (FAAH): 0 to 25%
inhibition at 1 µM (MAGL): 25 to 50%

CS(=O)(=O)Nc1ccn(C(=O)N2CCC3(CCCN3Cc3cccc(Cl)c3)CC2)n1 [Example 148, N-(1-(1-(3-chlorobenzyl)-1,8-diazaspiro[4.5]decane-8-carbonyl)-1H-pyrazol-3-yl)methanesulfonamide]
inhibition at 1 µM (FAAH): 0 to 25%
inhibition at 1 µM (MAGL): 0 to 25%

CS(=O)(=O)Nc1ccn(C(=O)N2CCN(Cc3ccc(C(F)(F)F)cc3N3CCCCC3)CC2)n1 [Example 129, N-(1-(4-(2-(piperidin-1-yl)-4-(trifluoromethyl)benzyl)piperazine-1-carbonyl)-1H-pyrazol-3-yl) methanesulfonamide]
IC50 (FAAH): 1000 to 10000 nM
inhibition at 1 µM (FAAH): 0 to 25%
IC50 (MAGL): ≤ 100 nM
inhibition at 1 µM (MAGL): ≥ 75%

CS(=O)(=O)Nc1ccn(C(=O)N2CCN(Cc3ccc(Cl)c(-c4nnn[nH]4)c3)CC2)n1 [Example 214, N-(1-(4-(4-chloro-3-(1H-tetrazol-5-yl)benzyl)piperazine-1-carbonyl)-1H-pyrazol-3-yl) methanesulfonamide]
inhibition at 1 µM (FAAH): 0 to 25%
inhibition at 1 µM (MAGL): 0 to 25%

CS(=O)(=O)Nc1ccn(C(=O)N2CCN(Cc3ccc(Cl)c(-c4nnco4)c3)CC2)n1 [Example 260, N-(1-(4-(4-chloro-3-(1,3,4-oxadiazol-2-yl)benzyl)piperazine-1-carbonyl)-1H-pyrazol-3-yl) methanesulfonamide]
inhibition at 1 µM (FAAH): 0 to 25%
inhibition at 1 µM (MAGL): ≥ 75%

CC(=O)Nc1ccn(C(=O)N2CCN(Cc3cc(Oc4nc5ccccc5s4)cc(C(F)(F)F)c3)CC2)n1 [Example 76, N-(1-(4-(3-(benzo[d]thiazol-2-yloxy)-5-(trifluoromethyl)benzyl)piperazine-1-carbonyl)-1H-pyrazol-3-yl)acetamide]
IC50 (FAAH): 100 to 1000 nM
inhibition at 1 µM (FAAH): ≥ 75%
IC50 (MAGL): ≤ 100 nM
inhibition at 1 µM (MAGL): ≥ 75%

CC(=O)N1CCN(c2cc(CN3CCN(C(=O)n4ccc(NS(C)(=O)=O)n4)CC3)cc(C(F)(F)F)c2)CC1 [Example 251, N-(1-(4-(3-(4-acetylpiperazin-1-yl)-5-(trifluoromethyl)benzyl)piperazine-1-carbonyl)-1H-pyrazol-3-yl) methanesulfonamide]
inhibition at 1 µM (FAAH): 0 to 25%
inhibition at 1 µM (MAGL): 25 to 50%

CC(=O)Nc1ccn(C(=O)N2CCC3(CCCN3Cc3ccc(Cl)cc3N3CCN(C4CC4)CC3)CC2)n1 [Example 13, N-(1-(1-(4-chloro-2-(4-cyclopropylpiperazin-1-yl)benzyl)-1,8-diazaspiro[4.5]decane-8-carbonyl)-1H-pyrazol-3-yl)acetamide]
IC50 (FAAH): 1000 to 10000 nM
inhibition at 1 µM (FAAH): 0 to 25%
IC50 (MAGL): 100 to 1000 nM
inhibition at 1 µM (MAGL): ≥ 75%

CS(=O)(=O)Nc1ccn(C(=O)N2CCC3(CCCN3Cc3ccc(Cl)cc3N3CCOCC3)CC2)n1 [Example 264, N-(1-(1-(4-chloro-2-morpholinobenzyl)-1,8-diazaspiro[4.5]decane-8-carbonyl)-1H-pyrazol-3-yl) methanesulfonamide]
inhibition at 1 µM (FAAH): 0 to 25%
inhibition at 1 µM (MAGL): 25 to 50%

CS(=O)(=O)Nc1ccn(C(=O)N2CCC3(CCCN3Cc3cc(N4CCCC4)cc(C(F)(F)F)c3)CC2)n1 [Example 163, N-(1-(1-(3-(pyrrolidin-1-yl)-5-(trifluoromethyl)benzyl)-1,8-diazaspiro[4.5]decane-8-carbonyl)-1H-pyrazol-3-yl) methanesulfonamide]
inhibition at 1 µM (FAAH): 0 to 25%
inhibition at 1 µM (MAGL): ≥ 75%

CS(=O)(=O)Nc1ccn(C(=O)N2CCC3(CCCN3Cc3cc(N4CCC(C(=O)O)C4)cc(C(F)(F)F)c3)CC2)n1 (stereo not drawn) [Example 247, 1-(3-((8-(3-(methylsulfonamido)-1H-pyrazole-1-carbonyl)-1,8-diazaspiro[4.5]decan-1-yl)methyl)-5-(trifluoromethyl)phenyl)pyrrolidine-3-carboxylic acid]
inhibition at 1 µM (FAAH): 0 to 25%
inhibition at 1 µM (MAGL): 0 to 25%

CC(=O)Nc1ccn(C(=O)N2CCC3(CCCN3Cc3ccc(Cl)cc3N3CC4COCC4C3)CC2)n1 (stereo not drawn) [Example 17, N-(1-(1-(4-chloro-2-(dihydro-1H-furo[3,4-c]pyrrol-5(3H,6H,6aH)-yl)benzyl)-1,8-diazaspiro[4.5]decane-8-carbonyl)-1H-pyrazol-3-yl)acetamide]
IC50 (FAAH): 1000 to 10000 nM
inhibition at 1 µM (FAAH): 0 to 25%
IC50 (MAGL): ≤ 100 nM
inhibition at 1 µM (MAGL): ≥ 75%

CC(=O)Nc1ccn(C(=O)N2CCC3(CCCN3Cc3cc(Oc4nc5ccccc5s4)cc(C(F)(F)F)c3)CC2)n1 [Example 86, N-(1-(1-(3-(benzo[d]thiazol-2-yloxy)-5-(trifluoromethyl)benzyl)-1,8-diazaspiro[4.5]decane-8-carbonyl)-1H-pyrazol-3-yl)acetamide]
inhibition at 1 µM (FAAH): 50 to 75%
inhibition at 1 µM (MAGL): ≥ 75%

CS(=O)(=O)Nc1ccn(C(=O)N2CCN(Cc3ccc(Cl)cc3N3CCCCC3)CC2)n1 [Example 128, N-(1-(4-(4-chloro-2-(piperidin-1-yl)benzyl)piperazine-1-carbonyl)-1H-pyrazol-3-yl) methanesulfonamide]
IC50 (FAAH): 1000 to 10000 nM
inhibition at 1 µM (FAAH): 0 to 25%
IC50 (MAGL): ≤ 100 nM
inhibition at 1 µM (MAGL): ≥ 75%

CS(=O)(=O)Nc1ccn(C(=O)N2CCN(Cc3cc(C(F)(F)F)ccc3N3CCOCC3)CC2)n1 [Example 124, N-(1-(4-(2-morpholino-5-(trifluoromethyl)benzyl)piperazine-1-carbonyl)-1H-pyrazol-3-yl) methanesulfonamide]
inhibition at 1 µM (FAAH): 0 to 25%
inhibition at 1 µM (MAGL): 50 to 75%

CC(=O)Nc1ccn(C(=O)N2CCC3(CCCN3Cc3ccc(C(F)(F)F)cc3OCC(=O)N3CCCC3)CC2)n1 [Example 89, N-(1-(1-(2-(2-oxo-2-(pyrrolidin-1-yl)ethoxy)-4-(trifluoromethyl)benzyl)-1,8-diazaspiro[4.5]decane-8-carbonyl)-1H-pyrazol-3-yl)acetamide]
inhibition at 1 µM (FAAH): 0 to 25%
inhibition at 1 µM (MAGL): ≥ 75%

CC(=O)Nc1ccn(C(=O)N2CCC3(CCCN3Cc3ccc(Cl)cc3N3CCC(F)(F)CC3)CC2)n1 [Example 11, N-(1-(1-(4-chloro-2-(4,4-difluoropiperidin-1-yl)benzyl)-1,8-diazaspiro[4.5]decane-8-carbonyl)-1H-pyrazol-3-yl)acetamide]
IC50 (FAAH): 1000 to 10000 nM
inhibition at 1 µM (FAAH): 0 to 25%
IC50 (MAGL): 100 to 1000 nM
inhibition at 1 µM (MAGL): ≥ 75%
